The results in this text go back to PMC10817493, “p-Terphenyl and Diphenyl Ether Derivatives from the Marine-Derived Fungus Aspergillus candidus HM5-4” (Marine Drugs, 2023).

The test system of experiment [1] is human myeloid leukemia cells (K562). Nature of the experiment: Cytotoxic assay (modified MTT), K562. As to conditions: mean ± SD of three parallel experiments. It is filed as cell-based. As to the method: (§1) All the compounds mentioned above were tested for their cytotoxic activities against human myeloid leukemia cells (K562), human liver cancer cells (BEL-7402), human gastric cancer cells (SGC-7901), human non-small cell lung cancer cells (A549) and human HeLa cervical cancer cells. […] Compared to the cytotoxic activity of 7, the cytotoxic activity of 5 was much stronger.
(§2) All above-mentioned compounds were evaluated for their cytotoxicity in five human tumor cell lines: K562, BEL-7402, SGC-7901, A549 and HeLa cells which were bought from the Cell Bank of Type Culture Collection of the Shanghai Institute of Cell Biology, Chinese Academy of Sciences, using modified MTT methods. The details of this are described in our previous paper. The positive control was cisplatin.

Experiment [2] has as its system human liver cancer cells (BEL-7402). Nature of the experiment: Cytotoxic assay (modified MTT), BEL-7402. In kind it is cell-based. The settings on record: mean ± SD of three parallel experiments. As to the method: as §1, §2
Experiment [3] concerns human non-small cell lung cancer cells (A549). Nature of the experiment: Cytotoxic assay (modified MTT), A549. In kind it is cell-based. As to conditions: mean ± SD of three parallel experiments. As to the method: as §1, §2
Experiment [4] concerns human gastric cancer cells (SGC-7901). Kind of experiment: Cytotoxic assay (modified MTT), SGC-7901. In kind it is cell-based. The settings on record: mean ± SD of three parallel experiments. As to the method: as §1, §2
Experiment [5] relates to human HeLa cervical cancer cells. Kind of experiment: Cytotoxic assay (modified MTT), HeLa. In kind it is cell-based. The settings on record: mean ± SD of three parallel experiments. As to the method:
as §1, §2

Experiment [6] has as its system Neoscytalidium dimidiatum. Kind of experiment: Antifungal activity, filter paper disc agar diffusion method. In kind it is cell-based. As to conditions: includes 6 mm disc, 10.0 µg/disc (carbendazim 10 μL, 1.0 mg/mL), mean ± SD, triplicate. As to the method:
The antifungal activities of three known compounds (5–7) were determined by the filter paper disc agar diffusion method.
The inhibitory activities of some compounds against six phytopathogenic fungi (Fusarium oxysporum f. sp. cubense, Colletotrichum gloeosporioides, Thielaviopsis paradoxa, Bipolaris cactivora (Petrak) Alcorn, Neoscytalidium dimidiatum, and Colletotrichum scovillei) were evaluated using the filter paper disc agar diffusion method; 250 μL of the fungal solution was aspirated onto the corresponding solid medium and spread evenly with a cotton swab. Samples were dissolved in MeOH to prepare solutions of 1.0 mg/mL and 3.0 mg/mL concentrations. Carbendazim (10 μL, 1.0 mg/mL) was used as a positive control and MeOH (10 μL) was used as negative control. The diameter of the inhibition zones of the plates cultured at 37 °C for 24 h were measured including the 6 mm disc diameter. Experiments were performed in triplicate.

Experiment [7] has as its target α-glucosidase (Saccharomyces cerevisiae, UniProt P53341). Nature of the experiment: α-Glucosidase inhibition assay (PNPG substrate). In kind it is biochemical. As to the method:
All abovementioned compounds were measured for their inhibitory effects against α-glucosidase, using PNPG as the substrate. The enzyme inhibitory assay was carried out by a formerly described method, with some modifications. Compounds were dissolved in DMSO and six concentration gradients were set in turn. All the assays were performed in 0.1 M sodium phosphate buffer (PH = 6.8). The 10 μL sample was mixed with 100 μL α-glucosidase solution (0.2 U/mL, Sigma, Kanagawa, Japan) and shaken well, then added to a 96-well plate and incubated at 37 °C for 15 min. Subsequently, 40 μL of 2.5 mM 4-nitrophenyl-α-D-glucopyranoside was added and further incubated at 37 °C for 15 min. DMSO was used as a control and the blank wells contained buffer in place of substrate. The OD values were tested at 405 nm with a microplate reader. […] The percentage inhibition was calculated by the following equation:% inhibition = ((ODcontrol − ODsample)/(ODcontrol − ODblank)) × 100

The subject of experiment [8] is K562, BEL-7402, SGC-7901, A549 and HeLa cells. Kind of experiment: Cytotoxic activity, summary over five human tumor cell lines. It is filed as cell-based. As to conditions: range over compounds 5 and 7 and K562, BEL-7402, SGC-7901, A549, HeLa, read-out: IC50 values, range over the five cancer cell lines.
Text: Two undescribed p-terphenyl derivatives, asperterphenylcins A–B (1–2), and two undescribed diphenyl ether derivatives, asperdiphenylcins A–B (3–4), together with three previously described p-terphenyl derivatives—4″-deoxyterprenin (5), terphenyllin (6), and 3″-hydroxyterphenyllin (7)—were obtained from the solid-rice culture of the marine-derived fungus Aspergillus candidus HM5-4, which was isolated from sponges from the South China Sea. Their structures were elucidated by HRESIMS data and NMR spectroscopic analysis.
as §2

The mark [9] stands for this setting: Homo sapiens, Bel-7402, BEL-7402 cells.
The mark [10] stands for this setting: Homo sapiens, SGC-7901, SGC-7901 cells.

Sequence of α-glucosidase (P53341 whole entry): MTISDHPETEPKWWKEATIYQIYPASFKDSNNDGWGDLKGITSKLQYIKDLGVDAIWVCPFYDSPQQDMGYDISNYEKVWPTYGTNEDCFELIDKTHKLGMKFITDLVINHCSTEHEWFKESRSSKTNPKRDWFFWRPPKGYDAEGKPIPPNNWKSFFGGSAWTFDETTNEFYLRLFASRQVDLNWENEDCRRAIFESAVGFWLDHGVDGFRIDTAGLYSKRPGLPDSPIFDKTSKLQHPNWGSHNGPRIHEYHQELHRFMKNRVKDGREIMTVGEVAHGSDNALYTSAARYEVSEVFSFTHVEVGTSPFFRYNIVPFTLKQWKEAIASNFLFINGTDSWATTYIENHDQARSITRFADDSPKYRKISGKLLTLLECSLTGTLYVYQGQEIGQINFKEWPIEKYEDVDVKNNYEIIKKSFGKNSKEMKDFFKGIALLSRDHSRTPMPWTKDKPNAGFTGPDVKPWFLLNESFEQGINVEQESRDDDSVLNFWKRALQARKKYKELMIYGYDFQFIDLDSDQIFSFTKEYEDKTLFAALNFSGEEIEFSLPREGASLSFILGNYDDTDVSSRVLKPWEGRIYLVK

Broadly, the IC50 is the concentration that gives 50% inhibition. With `N.N.[Cl][Pt][Cl]` [Cisplatin, cisplatin, reference compound], the IC50 in experiment [1] amounted to 3.08 ± 0.05 µM; in experiment [2] (BEL-7402 cells) it was 4.02 ± 0.06 µM; in experiment [3] (A549 cells), 1.93 ± 0.02 µM; in experiment [4] (SGC-7901 cells), 4.11 ± 0.02 µM; in experiment [5], 11.3 ± 0.15 µM.

Turning to `COc1c(-c2ccc(O)cc2)cc(O)c(-c2ccc(O)cc2)c1OC` [Compound 2, Asperterphenylcin B], the IC50 in experiment [1] (Homo sapiens) was more than 20 µg/mL; in experiment [2] (setting [9]), more than 20 µg/mL; in experiment [3] (Homo sapiens, A549, A549 cells), more than 20 µg/mL; in experiment [4] (setting [10]), more than 20 µg/mL; in experiment [5] (Homo sapiens), more than 20 µg/mL.

As for `COC(=O)Nc1nc2ccccc2[nH]1` [Carbendazim, reference compound], in experiment [6], the “diameter of inhibition zone against N. dimidiatum” value came out at 55.00 ± 0.82 mm.

Consider `COc1cccc2c1C(=O)OCc1cc(COC(C)=O)cc(O)c1O2` [Compound 3, Asperdiphenylcin A], for which the IC50 was more than 20 µg/mL in experiment [1] (Homo sapiens); more than 20 µg/mL in experiment [2] (setting [9]); more than 20 µg/mL in experiment [3] (Homo sapiens, A549, A549 cells); more than 20 µg/mL in experiment [4] (setting [10]); more than 20 µg/mL in experiment [5] (Homo sapiens). For the same compound, the “α-glucosidase inhibitory activity (in words)” value in experiment [7] was “no α-glucosidase inhibitory activity”.

Regarding `COc1cccc2c1C(=O)OCc1cc(C(=O)O)cc(O)c1O2` [Compound 4, Asperdiphenylcin B], the half-maximal inhibitory concentration (IC50) in experiment [1] (Homo sapiens) is more than 20 µg/mL; in experiment [2] (setting [9]), more than 20 µg/mL; in experiment [3] (Homo sapiens, A549, A549 cells), more than 20 µg/mL; in experiment [4] (setting [10]) it was more than 20 µg/mL; in experiment [5] (Homo sapiens), more than 20 µg/mL. The “α-glucosidase inhibitory activity (in words)” value in experiment [7] is recorded as “no α-glucosidase inhibitory activity”.

Consider `COc1cc(-c2ccc(O)cc2)c(OC)c(O)c1-c1ccc(O)cc1` [Compound 6, terphenyllin], for which the concentration for half-maximal inhibition (IC50) in experiment [1] (Homo sapiens) is more than 20 µg/mL; in experiment [2] (setting [9]), more than 20 µg/mL; in experiment [3] (Homo sapiens, A549, A549 cells), more than 20 µg/mL; in experiment [4] (setting [10]) it was more than 20 µg/mL; in experiment [5] (Homo sapiens), more than 20 µg/mL.

For `COc1ccc(O)c(-c2c(OC)cc(-c3ccc(O)cc3)c(OC)c2O)c1` [Compound 1, Asperterphenylcin A], the half-maximal inhibitory concentration (IC50) in experiment [1] (Homo sapiens) was more than 20 µg/mL; in experiment [2] (setting [9]) it was more than 20 µg/mL; in experiment [3] (Homo sapiens, A549, A549 cells), more than 20 µg/mL; in experiment [4] (setting [10]), more than 20 µg/mL; in experiment [5] (Homo sapiens) it was more than 20 µg/mL.

With `COc1cc(-c2ccccc2)c(OC)c(O)c1-c1ccc(OCC=C(C)C)c(O)c1` [Compound 5, 4″-deoxyterprenin], the IC50 is 15.03 ± 0.14 µM in experiment [1] (Homo sapiens); 3.32 to 60.4 µM in experiment [8]; 6.69 ± 0.12 µM in experiment [2] (setting [9]); 3.32 ± 0.1 µM in experiment [3] (Homo sapiens, A549, A549 cells); 3.67 ± 0.17 µM in experiment [4] (setting [10]); 44.77 ± 0.13 µM in experiment [5] (Homo sapiens). In addition, the “α-glucosidase inhibitory activity (in words)” value in experiment [7] is on record as “completely disappeared”. The “diameter of inhibition zone against N. dimidiatum” value in experiment [6] amounted to 31.67 ± 2.36 mm.

On to `COc1cc(-c2ccc(O)c(O)c2)c(OC)c(O)c1-c1ccc(O)cc1` [Compound 7, 3″-hydroxyterphenyllin], for which the IC50 is 34 ± 0.4 µM in experiment [1] (Homo sapiens), 3.32 to 60.4 µM in experiment [8] and 53.6 ± 0.73 µM in experiment [5] (Homo sapiens).
